This is an account of results in patent US20230190728A1, “NEW THERAPEUTIC USES OF COMPOUNDS” (PROXIMAGEN, LLC, priority 2020, published 2023).

Molecules are shown by their SMILES.

The test system of the assay is male C57BI/6 mice. The assay is described as follows: LPS-Induced Pulmonary Inflammation Study. The assay is classed as in vivo. Conditions: for average lavage TNFα: lavage supernatant, ELISA. How it is done:
This study was to test the efficacy of orally administered compounds as disclosed herein to reduce LPS-induced inflammatory cell infiltration of the lungs, and was carried out in male C57BI/6 mice.
Day 11: Groups 1 and 2 were administered 10% HP-β-CD. Group 3: 7.59 mg dexamethasone 21-phosphate disodium salt (Sigma, Cat. D1159, lot 88H1020, SF 1.316) was dissolved in […] HP-β-CD to prepare a 0.2 mg/mL solution. Group 4: 1 mg Example 7 was dissolved in 4.5 mL HP-β-CD and 7 µL 1 M HCI (MP Biomedicals, Cat. 194055, lot 3956H) with alternating sonication and vortexing. The pH was adjusted by addition of 5 µL 1 M NaOH and the volume brought up to 5 mL with 0.488 mL HP-β-CD to yield a 0.2 mg/mL solution. Group 5: 3 mg Example 7 was dissolved in 4.5 mL HP-β-CD and 20 µL 1 M HCI with alternating sonication and vortexing. The pH was adjusted by addition of 16 µL 1 M NaOH and the volume brought up to 5 mL with 0.464 mL HP-β-CD to yield a 0.6 mg/ mL solution. Group 6: 10 mg Example 7 was dissolved in 4.5 mL HP-β-CD and 66 µL 1 M HCI with alternating sonication and vortexing. The pH was adjusted by addition of 53 µL 1 M NaOH and the volume brought up to 5 mL with 0.381 mL HP-β-CD to yield a 2 mg/mL solution.
25.7 mg lipopolysaccharides (LPS) from E. coli strain 055:B5 (Sigma, Cat. L2880, lot 025M4040V) was dissolved in 2.57 mL sterile saline (Hospira, lot 56-836-FW) to prepare a 10 mg/mL solution.
The mice were numbered, weighed, and dosed orally at 10 mL/kg as in Table 5.
An hour later, the mice were anesthetized, a midline incision was made in the neck, the muscle layers separated by blunt dissection, and 2 mL/kg LPS (20 mg/kg) injected into the trachea (Groups 2-6). The incision was closed with wound clips and the mice returned to cages. Group 1 received 2 mL/kg saline.
Six hours after LPS/saline injection, the mice were anesthetized, the wound clips removed, the trachea was cannulated with a 23 G needle blunt, and the lungs lavaged eight times with 0.5 mL heparinized saline. The lavage was pooled, gently inverted, and a sample retained for white blood cell (WBC) counts and differential analysis. The remainder of the lavage was centrifuged, the supernatants dispensed to one aliquot in labelled Eppendorf tubes which were stored at -80° C. The carcasses were disposed of appropriately.
Day 14: The aliquot of lung lavage supernatant was equilibrated to room temperature, diluted 1:2 and assayed for TNFα by ELISA (R&D Systems, Cat. MTA00B, lot 332141).

Setting [1] is: 2 mg/kg oral, one hour pre-treatment (Group 4), did not reach statistical significance.
[2] abbreviates: 6 mg/kg oral, one hour pre-treatment (Group 5).
Setting [3] is: 20 mg/kg oral, one hour pre-treatment (Group 6).

On to `CS(=O)(=O)N1CCN(c2ccc(-c3nc4ccncc4n3-c3ccc(F)cc3)cn2)CC1` [Example 7, 1-{5-[3-(4-Fluorophenyl)-3H-Imidazo[4,5-C]Pyridin-2-Yl]Pyridin-2-Yl}-4-Methanesulfonylpiperazine], for which the “reduction in infiltrating inflammatory cells” value was determined as 3% under setting [1], 70% under setting [2] and 93% under setting [3]. Further, the “reduction in lavage TNFα content” value under setting [1] is reported as 10%, the “reduction in lavage TNFα content” value under setting [2] was 65% and the “reduction in lavage TNFα content” value under setting [3] came out at 74%. The “reduction in neutrophils in the lavage fluid” value (from here on “reduction in neutrophils”) under setting [1] amounted to 27%; the “reduction in neutrophils” value (6 mg/kg oral, one hour pre-treatment) is listed as 97%; the “reduction in neutrophils” value (20 mg/kg oral, one hour pre-treatment) turned out to be 97%. For the same molecule, the “effect of one hour oral pre-treatment on all measured parameters” value (2, 6, 20 mg/kg oral prior to LPS challenge, in words) was “significant dose-dependent reduction in all measured parameters”. Besides, the “effect of oral pre-treatment on LPS-induced pulmonary Neutrophil infiltration” value (FIG. 1, in words) is on record as “decreases neutrophil infiltration in lung tissue”. Further, the “effect of oral pre-treatment on LPS-induced pulmonary lavage TNFa content” value (FIG. 2, in words) is listed as “decreases TNFa content in pulmonary lavage”. The “average lavage TNFα” value is given as 337.00 pg/mL (Group 4, 2 mg/kg oral 1 h before LPS, Mean SD); 132.90 pg/mL (Group 5, 6 mg/kg oral 1 h before LPS, Mean SD); 98.87 pg/mL (Group 6, 20 mg/kg oral 1 h before LPS, Mean SD). For the same molecule, the Neutrophils (Group 4, 2 mg/kg oral 1 h before LPS, lung lavage 6 h after LPS, Mean SD) was 583 204.
